# Test: Thermal stability of compound assessed as melting temperature at 10 uM
# Type: physicochemical
row,Tm [°C],Substance
1,72,H-RIQQIEQKIHHIEQRIQQIEQLLQLTVWGIKQLQARIL-OH
2,74,H-RIQQIEQKIHHIEQRIQQIEQRIEAQQHLLQLTVWGIKQLQARIL-OH
3,82,H-RIQQIEQKIHHIEQRIQQIEQRISGIVQQQNNLLRIEAQQHLLQLTVWGIKQLQARIL-OH

# From ChEMBL document CHEMBL4627250, “Suitable fusion of N-terminal heptad repeats to achieve covalently stabilized potent N-peptide inhibitors of HIV-1 infection” (Bioorg Med Chem, 2020)
